Test results reported in patent publication US20260265256A1 (IMPACT THERAPEUTICS (SHANGHAI), INC., priority 2023, published 2026).

Key:
[1] = molecular target: recombinant poly(ADP-ribose) polymerase 2 (PARP2) (Homo sapiens, UniProt Q9UGN5); assay: PARP2 chemiluminescent assay; type: biochemical; details: PARP2 enzyme activity, chemiluminescence, 40 ng enzyme/well
[2] = molecular target: recombinant poly(ADP-ribose) polymerase 1 (PARP1) (Homo sapiens, UniProt P09874); assay: PARP1 chemiluminescent assay; type: biochemical; details: PARP1 enzyme activity, chemiluminescence, 40 ng enzyme/well
Method: The solution of recombinant poly(ADP-ribose) polymerase 1 and 2 (PARP1 and PARP2) (40 ng enzyme/well) and the compounds to be tested were mixed, respectively. The solutions were added to a 96-well plate coated with histone mixture, incubated at room temperature for 1 h, then 50 μL 0.3 ng/mL Streptavidin-HRP was added to each well. The plates were incubated for 30 minutes at room temperature. Finally, the plates were treated with streptavidin-HRP followed by addition of the ELISA ECL substrate to produce chemiluminescence that can be measured using a chemiluminescence reader. Inhibition of the tested compound to PARP1/2 enzyme activity was calculated according to the following formula. [formula] IC50 value is obtained by fitting the s-shaped dose response curve equation by using XL Fit software.

[3] = tested on: MDA-MB-436 cells; assay: Growth inhibition assay against BRCA mutant human breast cancer MDA-MB-436 cell line (CCK-8, 7 days); type: cell-based; details: 168 h, MDA-MB-436, 7 days, read-out: IC50 (nM), proliferation of human breast cancer cells MDA-MB-436
Summary of the method: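 Seeded 3000 cells/well overnight, then exposed to test compound (0.10% DMSO control) for 7 days at 37 °C, 5% CO2, with compound-containing medium changed on day 4. CCK-8 added for 4 h; OD = A450 − A650. Survival % relative to DMSO after background subtraction, plotted against concentration for IC50.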

recombinant poly(ADP-ribose) polymerase 2 (PARP2), sequence (Q9UGN5 whole entry): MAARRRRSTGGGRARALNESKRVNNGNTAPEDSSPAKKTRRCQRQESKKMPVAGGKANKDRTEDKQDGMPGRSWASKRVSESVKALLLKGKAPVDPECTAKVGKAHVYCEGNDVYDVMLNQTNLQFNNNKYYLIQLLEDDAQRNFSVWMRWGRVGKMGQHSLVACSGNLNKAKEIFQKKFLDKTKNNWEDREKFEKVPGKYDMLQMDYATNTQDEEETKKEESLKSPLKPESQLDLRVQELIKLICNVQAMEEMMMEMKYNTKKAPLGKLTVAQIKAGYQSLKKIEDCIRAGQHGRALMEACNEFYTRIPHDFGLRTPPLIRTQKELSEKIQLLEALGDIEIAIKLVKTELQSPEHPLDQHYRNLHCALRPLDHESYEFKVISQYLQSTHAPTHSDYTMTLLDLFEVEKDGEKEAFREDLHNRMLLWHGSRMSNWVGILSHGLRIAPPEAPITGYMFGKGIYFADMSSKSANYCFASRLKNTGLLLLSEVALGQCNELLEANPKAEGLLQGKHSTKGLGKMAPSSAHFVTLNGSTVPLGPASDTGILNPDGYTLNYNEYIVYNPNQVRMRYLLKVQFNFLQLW
recombinant poly(ADP-ribose) polymerase 1 (PARP1), sequence (P09874 whole entry): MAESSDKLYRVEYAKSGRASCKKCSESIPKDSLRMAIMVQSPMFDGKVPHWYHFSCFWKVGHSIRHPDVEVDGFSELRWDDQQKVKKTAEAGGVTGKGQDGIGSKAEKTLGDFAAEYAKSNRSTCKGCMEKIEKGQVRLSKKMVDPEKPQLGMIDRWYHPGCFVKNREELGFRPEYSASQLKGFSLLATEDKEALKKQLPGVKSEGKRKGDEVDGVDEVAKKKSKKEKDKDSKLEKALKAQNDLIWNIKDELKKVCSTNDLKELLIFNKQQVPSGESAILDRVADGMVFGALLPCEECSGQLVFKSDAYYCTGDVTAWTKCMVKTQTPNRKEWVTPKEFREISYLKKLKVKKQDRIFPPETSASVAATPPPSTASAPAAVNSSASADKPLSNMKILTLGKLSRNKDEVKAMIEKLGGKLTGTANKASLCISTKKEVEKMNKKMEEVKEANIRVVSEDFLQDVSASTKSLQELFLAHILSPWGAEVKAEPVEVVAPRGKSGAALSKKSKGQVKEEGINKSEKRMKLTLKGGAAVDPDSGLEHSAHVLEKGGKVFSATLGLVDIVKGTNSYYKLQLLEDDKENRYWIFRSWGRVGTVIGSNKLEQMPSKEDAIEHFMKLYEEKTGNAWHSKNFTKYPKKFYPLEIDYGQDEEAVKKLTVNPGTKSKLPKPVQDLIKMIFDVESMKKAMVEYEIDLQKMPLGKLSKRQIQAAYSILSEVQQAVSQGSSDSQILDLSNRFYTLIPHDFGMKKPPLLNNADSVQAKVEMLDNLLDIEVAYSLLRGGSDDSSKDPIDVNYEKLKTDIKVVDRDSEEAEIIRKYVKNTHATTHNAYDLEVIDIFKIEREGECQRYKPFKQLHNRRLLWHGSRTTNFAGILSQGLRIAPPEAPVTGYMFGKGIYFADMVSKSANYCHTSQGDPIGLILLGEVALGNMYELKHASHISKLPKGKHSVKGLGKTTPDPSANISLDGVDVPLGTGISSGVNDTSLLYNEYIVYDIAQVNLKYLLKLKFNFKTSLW

IC50 [1]: 21 nM
IC50 [2]: 0.26 nM
IC50 [3]: 4.75 nM
SMILES: CNC(=O)c1ccc(-n2cc3c(n2)CN(Cc2ccc4c([nH]c(=O)c5c(C(F)(F)F)cnn54)c2F)C3)cn1 [Example 25, 5-(5-((6-fluoro-4-oxo-3-(trifluoromethyl)-4,5-dihydropyrazolo[1,5-a]quinoxalin-7-yl)methyl)-5,6-dihydropyrrolo[3,4-c]pyrazol-2(4H)-yl)-N-methylpicolinamide]
